Molecular target: T1, Integrin alpha-4 (Homo sapiens, UniProt P13612)
T1 sequence (P13612 whole entry): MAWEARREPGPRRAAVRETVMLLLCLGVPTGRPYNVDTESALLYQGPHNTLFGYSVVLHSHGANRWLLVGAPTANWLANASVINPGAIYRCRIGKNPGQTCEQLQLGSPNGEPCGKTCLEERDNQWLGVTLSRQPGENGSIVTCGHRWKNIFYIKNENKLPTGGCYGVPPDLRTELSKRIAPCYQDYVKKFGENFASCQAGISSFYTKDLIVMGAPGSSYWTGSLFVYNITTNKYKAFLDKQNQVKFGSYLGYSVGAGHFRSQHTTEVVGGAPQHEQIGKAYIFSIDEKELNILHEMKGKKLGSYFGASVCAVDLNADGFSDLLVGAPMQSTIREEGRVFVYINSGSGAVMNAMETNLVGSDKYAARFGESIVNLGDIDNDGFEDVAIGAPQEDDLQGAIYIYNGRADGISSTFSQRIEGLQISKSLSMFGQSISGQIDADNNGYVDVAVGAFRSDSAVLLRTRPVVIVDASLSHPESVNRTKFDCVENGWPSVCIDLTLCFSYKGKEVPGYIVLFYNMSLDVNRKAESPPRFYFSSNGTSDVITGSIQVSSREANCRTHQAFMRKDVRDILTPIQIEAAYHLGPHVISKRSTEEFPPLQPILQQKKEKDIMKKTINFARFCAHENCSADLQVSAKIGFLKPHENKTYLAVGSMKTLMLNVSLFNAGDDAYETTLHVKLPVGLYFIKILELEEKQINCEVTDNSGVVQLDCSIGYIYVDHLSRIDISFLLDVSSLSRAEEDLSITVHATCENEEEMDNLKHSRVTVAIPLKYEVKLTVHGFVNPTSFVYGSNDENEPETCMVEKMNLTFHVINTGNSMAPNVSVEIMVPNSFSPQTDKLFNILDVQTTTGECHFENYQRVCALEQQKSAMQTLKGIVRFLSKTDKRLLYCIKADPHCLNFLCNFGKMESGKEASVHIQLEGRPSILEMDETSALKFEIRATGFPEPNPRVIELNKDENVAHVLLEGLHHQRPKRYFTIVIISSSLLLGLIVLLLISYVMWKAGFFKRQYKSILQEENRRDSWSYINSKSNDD
Experiment: VLA-4 integrin allosteric ligands, SAR follow-up, cell-based, LIBS antibody binding, flow cytometry (AID 488791)

EC50 | SMILES
16.4 µM | Cc1ccc(NC(=O)c2cc(-n3c(O)ccc3O)ccc2N2CCOCC2)cc1
23.3 µM | Cc1ccc(NC(=O)c2cc(-n3c(O)ccc3O)ccc2N2CCOCC2)cc1Cl [VU0419498-1]
